# Data as given in article PMC12498190, “A Photocaged N‐Phosphonopiperidinone as a Selective Photo‐Cleavable DPP8/9 Inhibitor” (Chembiochem, 2025).
# Like-named read-outs stand apart in the source and are kept apart here.
# Assay type: physicochemical
# Settings: 50 µM in 10% acetonitrile/water, green LED 520-530 nm, 30 W
# Protocol: With 5 in our hands, we then started our probe characterization by determining the velocity of the photorelease reaction, i.e., the light‐triggered cleavage of the photocage, thereby delivering again the “active” inhibitor 1. To this end, a 50 µM solution of 5 in 10% acetonitrile in MS‐grade water was irradiated with a green LED lamp (λ = 520‐530 nm, 30 W) for the indicated time periods, and the release of the active inhibitor 1 was quantified via liquid chromatography‐mass spectrometry (LC–MS) analysis (Figure 1A). […] After 3 min, cleavage was quantitative (>99%). Importantly, the only products observed were the desired ‘free’ inhibitor 1 and the cleaved photogroup, indicating a clean activation to 1.
# Figure 1 DPP inhibition by photo‐cleavable inhibitors. A) LC‐MS analysis of the photocleavage reaction of 5 after irradiation with green light. 50 µM of compound 5 was irradiated with a green LED lamp (λ = 520‐530 nm, 30 W) for up to 5 min, and the resulting reaction mixture was analyzed via LC‐MS. […] B) Resulting quantification of the photolysis of 5 based on peak areas depicted in A) (n = 3 technical replicates). […] Enzyme activity was determined by measuring the release of AMC from the substrate GP‐AMC. […]
# Compound 5 was dissolved in DMSO. In order to quantify the effect of irradiation time on photocleavage of the BODIPY moiety, 50 µL aliquots of a 50 µM solution of 5 in 10% acetonitrile (ACN; VWR Chemicals, USA) in MS‐grade water (VWR Chemicals, USA) were irradiated for 0–5 min with a green LED lamp (λ = 520–530 nm, 30 W; Eurolite, Germany) at room temperature (RT) and gentle shaking (final DMSO concentration: 0.5%).
# Quantification of inhibitor release was then determined via LC‐MS on an LTQ XL linear ion trap mass spectrometer (ITMS; Thermo Fisher Scientific, USA) coupled to a DIONEX UltiMate 3000 system (Thermo Fisher Scientific, USA), operated using Xcalibur software 4.4.16.14. […] Quantification was done using Freestyle v1.6. based on the UV spectra (λ = 254 nm) using the Avalon peak detection algorithm. […]
smiles,measurement,setting,value
CCCCCc1ccc(SCCP(=O)(OCC)N2CCC[C@H](NC(=O)OCC3=C4C(C)=CC(C)=[N+]4[B-](C)(C)n4c(C)cc(C)c43)C2=O)cc1 (some centres unmarked) [Compound 5],Photocage cleaved off,after 2 min,95%
same,Photocage cleaved off,after 3 min,> 99%
